{
  "source": "patent US20250034216A1",
  "about": "“STEREOSELECTIVE COVALENT LIGANDS FOR ONCOGENIC AND IMMUNOLOGICAL PROTEINS” (The Scripps Research Institute, priority 2021, published 2025)",
  "experiment_in_all_cases": "IA-DTB cysteine engagement",
  "format_in_all_cases": "binding",
  "conditions_in_all_cases": "22Rv1 cells, 20 μM probe, 1 h, relative to DMSO",
  "key": {"FABP5_C127": {"biological_target": "T1, FABP5_C127 (Homo sapiens, UniProt Q01469)", "T1 construct": "endogenous in cells; host or cells: 22Rv1", "T1 sequence (Q01469 whole entry)": "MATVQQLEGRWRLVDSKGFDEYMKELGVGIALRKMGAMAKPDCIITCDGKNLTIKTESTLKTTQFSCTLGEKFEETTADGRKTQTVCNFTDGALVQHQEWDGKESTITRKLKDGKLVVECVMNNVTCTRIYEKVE", "procedure,_shortened": "(§1)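 Cells were treated in situ with electrophilic probes, then lysed, and the lysates (2 mg/mL protein) were labeled with IA-DTB for 1 h at ambient temperature. After reduction, alkylation and trypsin digestion, labeled peptides were streptavidin-enriched, TMT-labeled and fractionated. Engagement ratios are probe vs DMSO reporter intensities, averaged across replicates.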"}, "HMOX2_C265": {"biological_target": "T2, HMOX2_C265 (Homo sapiens, UniProt P30519)", "T2 construct": "endogenous in cells; host or cells: 22Rv1", "T2 sequence (P30519 1-316)": "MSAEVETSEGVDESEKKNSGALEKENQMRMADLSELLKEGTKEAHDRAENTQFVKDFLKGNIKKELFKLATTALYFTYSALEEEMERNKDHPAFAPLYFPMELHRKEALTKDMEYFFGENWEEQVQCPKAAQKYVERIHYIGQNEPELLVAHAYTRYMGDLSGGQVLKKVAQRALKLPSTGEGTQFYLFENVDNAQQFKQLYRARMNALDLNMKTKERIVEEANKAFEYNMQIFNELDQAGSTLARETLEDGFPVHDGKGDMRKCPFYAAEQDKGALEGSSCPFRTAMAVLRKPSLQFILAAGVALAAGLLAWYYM", "procedure,_shortened": "as §1"}, "HSD11B2_C264": {"biological_target": "T3, HSD11B2_C264 (Homo sapiens, UniProt P80365)", "T3 construct": "endogenous in cells; host or cells: 22Rv1", "T3 sequence (P80365 1-405)": "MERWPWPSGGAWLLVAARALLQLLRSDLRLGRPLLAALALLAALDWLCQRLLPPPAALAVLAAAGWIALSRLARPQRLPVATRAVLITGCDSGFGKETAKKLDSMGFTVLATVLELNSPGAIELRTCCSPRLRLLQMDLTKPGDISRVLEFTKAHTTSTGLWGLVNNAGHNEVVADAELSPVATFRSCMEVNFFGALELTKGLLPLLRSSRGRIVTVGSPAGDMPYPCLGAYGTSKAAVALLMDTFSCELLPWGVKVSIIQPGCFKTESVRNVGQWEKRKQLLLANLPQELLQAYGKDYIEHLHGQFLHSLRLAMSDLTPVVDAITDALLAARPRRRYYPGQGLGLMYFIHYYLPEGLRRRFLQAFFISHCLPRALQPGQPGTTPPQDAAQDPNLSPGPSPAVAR", "procedure,_shortened": "as §1"}, "RETSAT_C547": {"biological_target": "T4, RETSAT_C547 (Homo sapiens, UniProt Q6NUM9)", "T4 construct": "endogenous in cells; host or cells: 22Rv1", "T4 sequence (Q6NUM9 19-610)": "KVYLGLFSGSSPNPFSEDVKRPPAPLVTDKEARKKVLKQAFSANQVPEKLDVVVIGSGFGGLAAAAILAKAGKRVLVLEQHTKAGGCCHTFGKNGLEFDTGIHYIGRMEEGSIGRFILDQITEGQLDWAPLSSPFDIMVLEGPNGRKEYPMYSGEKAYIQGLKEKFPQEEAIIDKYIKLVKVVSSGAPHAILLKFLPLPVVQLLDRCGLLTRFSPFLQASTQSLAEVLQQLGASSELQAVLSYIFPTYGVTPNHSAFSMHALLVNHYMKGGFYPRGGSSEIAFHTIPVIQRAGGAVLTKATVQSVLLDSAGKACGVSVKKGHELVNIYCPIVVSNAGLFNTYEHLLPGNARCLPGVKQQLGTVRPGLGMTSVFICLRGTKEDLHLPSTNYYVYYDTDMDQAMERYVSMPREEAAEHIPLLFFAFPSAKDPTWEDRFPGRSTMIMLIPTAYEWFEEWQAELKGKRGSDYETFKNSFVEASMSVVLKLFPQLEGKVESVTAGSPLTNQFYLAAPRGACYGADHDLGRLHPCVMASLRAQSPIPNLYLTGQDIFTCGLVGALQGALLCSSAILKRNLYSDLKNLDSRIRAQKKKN", "procedure,_shortened": "as §1"}},
  "data": [
    {"molecule": "C=CC(=O)N1C[C@@H](c2ccc(Br)cc2)[C@H]1C(=O)Nc1cccc2cccnc12", "note": "[MY-1A, (2S,3R)-1-acryloyl-3-(4-bromophenyl)-N-(quinolin-8-yl)azetidine-2-carboxamide]", "values": [
      {"measurement": "% engagement FABP5_C127", "setting": "FABP5_C127", "result": 0, "unit": "%"},
      {"measurement": "% engagement HMOX2_C265", "setting": "HMOX2_C265", "result": 72.5, "unit": "%"},
      {"measurement": "% engagement HSD11B2_C264", "setting": "HSD11B2_C264", "result": 30.5, "unit": "%"},
      {"measurement": "% engagement RETSAT_C547", "setting": "RETSAT_C547", "result": 80, "unit": "%"}
    ]},
    {"molecule": "C=CC(=O)N1C[C@H](c2ccc(Br)cc2)[C@@H]1C(=O)Nc1cccc2cccnc12", "note": "[MY-1B, (2R,3S)-1-acryloyl-3-(4-bromophenyl)-N-(quinolin-8-yl)azetidine-2-carboxamide]", "values": [
      {"measurement": "% engagement FABP5_C127", "setting": "FABP5_C127", "result": 73, "unit": "%"},
      {"measurement": "% engagement HMOX2_C265", "setting": "HMOX2_C265", "result": 73.5, "unit": "%"},
      {"measurement": "% engagement HSD11B2_C264", "setting": "HSD11B2_C264", "result": 22, "unit": "%"},
      {"measurement": "% engagement RETSAT_C547", "setting": "RETSAT_C547", "result": 66.75, "unit": "%"}
    ]},
    {"molecule": "C=CC(=O)N1C[C@H](c2ccc(Br)cc2)[C@H]1C(=O)Nc1cccc2cccnc12", "note": "[MY-3A, (2S,3S)-1-acryloyl-3-(4-bromophenyl)-N-(quinolin-8-yl)azetidine-2-carboxamide]", "values": [
      {"measurement": "% engagement FABP5_C127", "setting": "FABP5_C127", "result": "−13", "unit": "%"},
      {"measurement": "% engagement HMOX2_C265", "setting": "HMOX2_C265", "result": 71.75, "unit": "%"},
      {"measurement": "% engagement HSD11B2_C264", "setting": "HSD11B2_C264", "result": 23.5, "unit": "%"},
      {"measurement": "% engagement RETSAT_C547", "setting": "RETSAT_C547", "result": 53.5, "unit": "%"}
    ]},
    {"molecule": "C=CC(=O)N1C[C@H](c2ccc(Br)cc2)[C@H]1C(=O)Nc1cccc2cccnc12", "note": "[MY-3B, (2S,3S)-1-acryloyl-3-(4-bromophenyl)-N-(quinolin-8-yl)azetidine-2-carboxamide]", "values": [
      {"measurement": "% engagement FABP5_C127", "setting": "FABP5_C127", "result": "−60.5", "unit": "%"},
      {"measurement": "% engagement HMOX2_C265", "setting": "HMOX2_C265", "result": 79.5, "unit": "%"},
      {"measurement": "% engagement HSD11B2_C264", "setting": "HSD11B2_C264", "result": 90.25, "unit": "%"},
      {"measurement": "% engagement RETSAT_C547", "setting": "RETSAT_C547", "result": 71.25, "unit": "%"}
    ]}
  ]
}
